Measured values: PubChem BioAssay (NCI)
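Briefly, cells in 96-well plates were exposed to five compound concentrations for 48 h, and endpoints were estimated by linear interpolation. The concentration for full growth arrest is given as TGI.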

Columns and labels:
Assay in all cases: DTP human tumour cell line panel, 48 h
[1] = test system: OVCAR-4 ovarian
[2] = test system: KM12 colon
[3] = test system: 786-0 renal
[4] = test system: HT29 colon
[5] = test system: SNB-78 CNS
[6] = test system: DMS 273 small cell lung
[7] = test system: UACC-62 melanoma
[8] = test system: OVCAR-8 ovarian
[9] = test system: ACHN renal
[10] = test system: TK-10 renal
[11] = test system: COLO 205 colon
[12] = test system: NCI-H460 lung
[13] = test system: SNB-75 CNS
[14] = test system: OVCAR-3 ovarian
[15] = test system: LOX IMVI melanoma
[16] = test system: MALME-3M melanoma
[17] = test system: RXF 393 renal
[18] = test system: SK-MEL-28 melanoma
[19] = test system: NCI-H226 lung
[20] = test system: XF 498 CNS
[21] = test system: CAKI-1 renal
[22] = test system: SN12C renal
[23] = test system: HOP-92 NSCLC
[24] = test system: U251 CNS
[25] = test system: A549 NSCLC
[26] = test system: DMS 114 small cell lung
[27] = test system: HCT-15 colon
[28] = test system: NCI-H23 lung
[29] = test system: A498 renal
[30] = test system: UACC-257 melanoma
[31] = test system: HCT-116 colon
[32] = test system: SF-268 CNS
[33] = test system: KM20L2 colon
[34] = test system: SF-295 CNS
[35] = test system: EKVX NSCLC
[36] = test system: SW-620 colon
[37] = test system: IGROV1 ovarian
[38] = test system: HOP-62 NSCLC
[39] = test system: DLD-1 colon
[40] = test system: UO-31 renal
[41] = test system: SF-539 CNS
[42] = test system: SK-MEL-5 melanoma
[43] = test system: LXFL 529 NSCLC
[44] = test system: HCC-2998 colon
[45] = test system: RXF-631 renal
[46] = test system: OVCAR-5 ovarian
[47] = test system: SK-OV-3 ovarian
[48] = test system: M19-MEL melanoma
[49] = test system: M14 melanoma
[50] = test system: RPMI-8226 leukemia
[51] = test system: SK-MEL-2 melanoma
[52] = test system: SNB-19 CNS
[53] = test system: MOLT-4 leukemia
[54] = test system: SR leukemia
[55] = test system: K-562 leukemia
[56] = test system: NCI-H522 lung
[57] = test system: HOP-18 NSCLC
[58] = test system: CCRF-CEM leukemia
[59] = test system: HL-60(TB) leukemia

Compound: COc1ccc(OC)c2[nH]c(Sc3c([N+](=O)[O-])ncn3C)nc12
- TGI [1]: 64.7 µM
- TGI [2]: > 100 µM
- TGI [3]: > 100 µM
- TGI [4]: > 100 µM
- TGI [5]: > 100 µM
- TGI [6]: 41.3 µM
- TGI [7]: 34.1 µM
- TGI [8]: 50.1 µM
- TGI [9]: > 100 µM
- TGI [10]: 61.6 µM
- TGI [11]: 26.6 µM
- TGI [12]: > 100 µM
- TGI [13]: > 100 µM
- TGI [14]: 45.6 µM
- TGI [15]: > 100 µM
- TGI [16]: 29.3 µM
- TGI [17]: 60.1 µM
- TGI [18]: 54.6 µM
- TGI [19]: 47.4 µM
- TGI [20]: 43.5 µM
- TGI [21]: 42.6 µM
- TGI [22]: 37.8 µM
- TGI [23]: 44.4 µM
- TGI [24]: > 100 µM
- TGI [25]: > 100 µM
- TGI [26]: 35.1 µM
- TGI [27]: 38.8 µM
- TGI [28]: 51.9 µM
- TGI [29]: 97.3 µM
- TGI [30]: 30.1 µM
- TGI [31]: 51.6 µM
- TGI [32]: 68.6 µM
- TGI [33]: 60.6 µM
- TGI [34]: > 100 µM
- TGI [35]: 51.2 µM
- TGI [36]: > 100 µM
- TGI [37]: 85.7 µM
- TGI [38]: > 100 µM
- TGI [39]: 48.8 µM
- TGI [40]: 93.5 µM
- TGI [41]: 34.2 µM
- TGI [42]: 35.4 µM
- TGI [43]: 27.3 µM
- TGI [44]: 38.4 µM
- TGI [45]: 35.9 µM
- TGI [46]: > 100 µM
- TGI [47]: > 100 µM
- TGI [48]: 50.2 µM
- TGI [49]: 88.3 µM

Compound: CC(=O)NNc1nc(C)c(C(=O)/C=C/c2cccc([N+](=O)[O-])c2)s1
- TGI [2]: > 100 µM
- TGI [3]: > 100 µM
- TGI [4]: > 100 µM
- TGI [5]: > 100 µM
- TGI [50]: > 100 µM
- TGI [51]: > 100 µM
- TGI [6]: > 100 µM
- TGI [7]: > 100 µM
- TGI [8]: > 100 µM
- TGI [10]: > 100 µM
- TGI [11]: > 100 µM
- TGI [12]: > 100 µM
- TGI [14]: > 100 µM
- TGI [15]: > 100 µM
- TGI [52]: > 100 µM
- TGI [16]: > 100 µM
- TGI [17]: > 100 µM
- TGI [18]: > 100 µM
- TGI [19]: > 100 µM
- TGI [53]: > 100 µM
- TGI [54]: > 100 µM
- TGI [21]: > 100 µM
- TGI [22]: > 100 µM
- TGI [23]: > 100 µM
- TGI [55]: > 100 µM
- TGI [24]: > 100 µM
- TGI [56]: > 100 µM
- TGI [25]: > 100 µM
- TGI [57]: > 100 µM
- TGI [26]: > 100 µM
- TGI [27]: > 100 µM
- TGI [28]: > 100 µM
- TGI [29]: > 100 µM
- TGI [30]: > 100 µM
- TGI [31]: > 100 µM
- TGI [32]: > 100 µM
- TGI [33]: > 100 µM
- TGI [34]: > 100 µM
- TGI [35]: > 100 µM
- TGI [58]: > 100 µM
- TGI [36]: > 100 µM
- TGI [59]: > 100 µM
- TGI [37]: > 100 µM
- TGI [38]: > 100 µM
- TGI [39]: > 100 µM
- TGI [40]: > 100 µM
- TGI [41]: > 100 µM
- TGI [42]: > 100 µM
- TGI [43]: > 100 µM
- TGI [44]: > 100 µM
- TGI [45]: > 100 µM
- TGI [46]: > 100 µM
- TGI [47]: > 100 µM
- TGI [48]: > 100 µM
- TGI [49]: > 100 µM

Compound: COC(=O)C1=C(C(=O)OC)C2(CCCCCC2=O)OC1=O (stereo not drawn)
- TGI [1]: > 100 µM
- TGI [2]: > 100 µM
- TGI [3]: > 100 µM
- TGI [4]: > 100 µM
- TGI [5]: > 100 µM
- TGI [50]: > 100 µM
- TGI [51]: > 100 µM
- TGI [6]: > 100 µM
- TGI [7]: > 100 µM
- TGI [8]: > 100 µM
- TGI [9]: > 100 µM
- TGI [10]: > 100 µM
- TGI [11]: > 100 µM
- TGI [12]: > 100 µM
- TGI [13]: > 100 µM
- TGI [14]: > 100 µM
- TGI [52]: > 100 µM
- TGI [16]: > 100 µM
- TGI [17]: > 100 µM
- TGI [18]: > 100 µM
- TGI [19]: > 100 µM
- TGI [53]: > 100 µM
- TGI [20]: > 100 µM
- TGI [21]: > 100 µM
- TGI [22]: > 100 µM
- TGI [23]: > 100 µM
- TGI [55]: > 100 µM
- TGI [24]: > 100 µM
- TGI [56]: > 100 µM
- TGI [25]: > 100 µM
- TGI [26]: > 100 µM
- TGI [27]: > 100 µM
- TGI [28]: > 100 µM
- TGI [29]: > 100 µM
- TGI [30]: > 100 µM
- TGI [31]: > 100 µM
- TGI [32]: > 100 µM
- TGI [33]: > 100 µM
- TGI [34]: > 100 µM
- TGI [35]: > 100 µM
- TGI [58]: > 100 µM
- TGI [36]: > 100 µM
- TGI [59]: > 100 µM
- TGI [37]: > 100 µM
- TGI [38]: > 100 µM
- TGI [41]: > 100 µM
- TGI [42]: > 100 µM
- TGI [43]: > 100 µM
- TGI [44]: > 100 µM
- TGI [45]: > 100 µM
- TGI [46]: > 100 µM
- TGI [47]: > 100 µM
- TGI [48]: > 100 µM
- TGI [49]: > 100 µM
